Assay results as given in paper PMC9229949 (Pharmaceutics, 2022).
Like-named read-outs stand apart in the source and are kept apart here.

Tests used:
[1] = tested on: P. falciparum 3D7 (CQ-susceptible) asexual blood stages; experiment: In vitro activity against asexual blood stages of P. falciparum, CQ-susceptible strain 3D7 (HRP2 ELISA); type: cell-based; conditions: Plasmodium falciparum, 3D7
Description: (§1) The plates were incubated for 72 h at 37 °C in controlled atmosphere. After frozen and thawing the plates, hemolyzed cultures were homogenized by vortexing the plates. The antiparasitic activity was determined using the HRP2 ELISA-based assay Malaria Ag Celisa kit (ref KM2159, Cellabs PTY LDT, Brookvale, Australia). […] IC50s are expressed as means of three to five experiments.

[2] = tested on: P. falciparum W2 (CQ-resistant) asexual blood stages; experiment: In vitro activity against asexual blood stages of P. falciparum, CQ-resistant strain W2 (HRP2 ELISA); type: cell-based; conditions: Plasmodium falciparum, W2
Description: as §1

[3] = tested on: β-hematin formation from Fe(III)PPIX (hematin); experiment: β-hematin inhibition activity, oxidizing conditions (O-BHIA, hematin); type: biochemical; conditions: 18 h incubation; median ± S.E.M. of three experiments; free bases; read-out: β-Hematin Inhibitory Activity (BHIA) O-BHIA (Hematin), IC50
Description: (§2) A hemin chloride (10 μL of 4 mM stock in 80% DMSO) aliquot was dispensed in a U bottom 96-well microplate, and then, 10 μL of 0.1 M NaOH (O-BHIA) or 4 mM reduced glutathione in PBS at pH 7.0 (R-BHIA) was added, and plates were sealed and incubated at 37 °C for 2 h. After this, 10 μL of the drug dissolved in DMSO was added and incubated for 2 h, followed by the addition of 180 μL of sodium acetate buffer (1.0 M, pH 5.2) and 10 μL of nonionic detergent IGEPAL-CA-630 solution in methanol (10 mg/mL). Plates were sealed and incubated at 37 °C for 18 h. […] The reaction was stopped by the addition of 50 μL of a sodium dodecyl sulfate solution (5.0% v/v in 0.1 M bicarbonate buffer at pH 9.0). Plates were centrifuged at 3700 rpm for 5 min, and 100 μL of supernatant was placed in a separate plate. […] Two independent experiments were performed, and each drug concentration was tested in quadruplicate concentrations.

[4] = tested on: β-hematin formation from Fe(II)PPIX (heme); experiment: β-hematin inhibition activity, reducing conditions (R-BHIA, heme); type: biochemical; conditions: 18 h incubation; median ± S.E.M. of three experiments; free bases; read-out: β-Hematin Inhibitory Activity (BHIA) R-BHIA (Heme), IC50
Description: as §2

CCN(CC)Cc1cc(Nc2ccnc3cc(Cl)ccc23)ccc1O [Amodiaquine (AQ), amodiaquine]
IC50 ([1]; 72 h incubation, HRP2 ELISA, mean ± S.E.M. of at least three experiments, AQ hydrochloride hydrate, PQ diphosphate, CQ diphosphate, read-out: P. falciparum, IC50 ± S.E.M., CQ-Susceptible 3D7): 18 ± 1.6 nM | IC50 ([1]; in vitro antiplasmodial activity, read-out: P. falciparum 3D7 (Cell Based Activity), IC50): 18 ± 2 nM | IC50 ([2]; 72 h incubation, HRP2 ELISA, mean ± S.E.M. of at least three experiments, AQ hydrochloride hydrate, PQ diphosphate, CQ diphosphate, read-out: P. falciparum, IC50 ± S.E.M., CQ-Resistant W2): 86.2 ± 9.4 nM | IC50 ([2]; Figure 5 summary, read-out: CQ-resistant P.f.): 86 ± 9 nM | IC50 [3]: 140000 ± 30000 nM | IC50 [4]: 100000 ± 10000 nM
